# Legend:
# sLFA-1/ICAM-1 = sLFA-1/ICAM-1 (Homo sapiens, UniProt P05107+P20701, DEL701-769); test: sLFA-1/ICAM-1 ELISA; details: sLFA-1 coated plates, 5dICAM-Fc binding, read-out: LFA/ICAM (IC50)
# Experimental: (§1) sLFA-1/ICAM-1 ELISA and Mac-1/ICAM-1 ELISA
# (§2) Plates were coated with either 50 μl/well of 2.0 ug/ml solution of sLFA-1 or Mac-1 receptor in divalent cation buffer (1 mM MnCI2, 0.14M NaCl, 20 mM HEPES pH 7.2) at 4° C. overnight. Two hundred fifty μl of blocking buffer (1% BSA in divalent cation buffer) was added to each well 1 hour at 37° C. Plates were washed 3 times with wash buffer (TBS/0.05% Tween-20/1 mM MnCl2). The compound to be tested was solubilized in DMSO. A series of 1:3 dilutions were performed to achieve a concentration range of 0.45 nM-3 uM. Fifty μl of binding buffer (0.5% BSA in divalent cation buffer)/1% DMSO and 50 μl of the solutions to be tested were added to the appropriate wells and incubated for 1 hour. Fifty μl of 5dICAM-Fc (27 ng/ml) was added to the appropriate wells and 50 μl binding buffer was added to non-specific binding wells and incubated for 2 hours and washed. One hundred μl of 1:4000 HRP-goat anti-huIgG was added to each well and incubated for 1 hour and washed. One hundred μl of 1:1 TMB solution was added to each well and developed for 20 min at room temperature. Color development was stopped by adding 100 μl H3PO4 to each well. Absorbance was measured at 450 nm.
# Mac-1/ICAM-1 = Mac-1/ICAM-1 (Homo sapiens, UniProt P05107+P11215); test: Mac-1/ICAM-1 ELISA; details: Mac-1 receptor coated plates, 5dICAM-Fc binding
# Experimental: as §1, §2
# sLFA-1/ICAM-1, sequence (P20701 26-1090 limits assumed, stated change not applied): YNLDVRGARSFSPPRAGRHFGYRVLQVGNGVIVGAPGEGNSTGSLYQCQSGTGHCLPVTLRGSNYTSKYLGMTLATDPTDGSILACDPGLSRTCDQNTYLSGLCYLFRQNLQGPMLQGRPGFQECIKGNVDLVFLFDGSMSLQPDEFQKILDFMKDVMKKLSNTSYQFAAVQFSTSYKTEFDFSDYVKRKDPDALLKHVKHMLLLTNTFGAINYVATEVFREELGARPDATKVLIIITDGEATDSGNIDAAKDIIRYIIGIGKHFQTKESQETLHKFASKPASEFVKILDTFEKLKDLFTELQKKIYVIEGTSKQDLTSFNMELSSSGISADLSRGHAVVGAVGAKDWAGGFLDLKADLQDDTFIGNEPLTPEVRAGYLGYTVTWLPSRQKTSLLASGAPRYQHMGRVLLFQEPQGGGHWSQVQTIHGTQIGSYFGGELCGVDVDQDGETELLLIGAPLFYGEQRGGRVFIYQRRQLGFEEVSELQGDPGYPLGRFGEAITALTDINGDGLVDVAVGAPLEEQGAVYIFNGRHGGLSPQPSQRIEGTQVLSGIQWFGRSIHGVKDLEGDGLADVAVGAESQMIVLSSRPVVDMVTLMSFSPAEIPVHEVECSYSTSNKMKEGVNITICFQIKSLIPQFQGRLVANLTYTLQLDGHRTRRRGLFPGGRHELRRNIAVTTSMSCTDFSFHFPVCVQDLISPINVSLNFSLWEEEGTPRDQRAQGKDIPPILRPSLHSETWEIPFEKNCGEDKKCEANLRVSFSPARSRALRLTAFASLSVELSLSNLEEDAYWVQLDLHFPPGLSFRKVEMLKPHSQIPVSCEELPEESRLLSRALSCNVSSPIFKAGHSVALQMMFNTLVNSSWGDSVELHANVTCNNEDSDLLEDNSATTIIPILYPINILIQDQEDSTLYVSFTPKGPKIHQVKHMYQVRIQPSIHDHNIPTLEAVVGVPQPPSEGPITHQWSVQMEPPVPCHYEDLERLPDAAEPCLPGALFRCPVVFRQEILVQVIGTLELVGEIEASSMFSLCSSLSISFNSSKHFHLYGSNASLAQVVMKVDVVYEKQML
# sLFA-1/ICAM-1, sequence (P05107 23-700 limits assumed, stated change not applied): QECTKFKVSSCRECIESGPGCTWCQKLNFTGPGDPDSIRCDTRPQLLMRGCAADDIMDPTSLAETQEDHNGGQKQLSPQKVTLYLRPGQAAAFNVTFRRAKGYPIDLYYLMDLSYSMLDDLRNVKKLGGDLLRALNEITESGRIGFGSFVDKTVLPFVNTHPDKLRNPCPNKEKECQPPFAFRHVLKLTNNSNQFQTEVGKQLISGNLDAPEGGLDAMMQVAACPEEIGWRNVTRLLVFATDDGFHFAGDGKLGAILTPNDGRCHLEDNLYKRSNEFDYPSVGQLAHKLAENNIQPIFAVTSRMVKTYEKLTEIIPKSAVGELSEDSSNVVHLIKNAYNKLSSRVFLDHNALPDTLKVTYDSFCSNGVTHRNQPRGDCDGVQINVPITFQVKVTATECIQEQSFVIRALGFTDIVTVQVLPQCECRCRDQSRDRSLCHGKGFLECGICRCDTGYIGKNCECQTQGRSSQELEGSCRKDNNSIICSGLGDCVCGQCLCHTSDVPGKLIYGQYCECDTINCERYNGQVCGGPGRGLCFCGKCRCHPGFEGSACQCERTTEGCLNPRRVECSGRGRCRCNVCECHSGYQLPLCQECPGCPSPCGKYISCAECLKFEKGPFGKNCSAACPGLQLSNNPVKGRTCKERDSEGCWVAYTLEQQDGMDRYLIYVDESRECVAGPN
# Mac-1/ICAM-1, sequence (P05107 23-769, other chains not shown): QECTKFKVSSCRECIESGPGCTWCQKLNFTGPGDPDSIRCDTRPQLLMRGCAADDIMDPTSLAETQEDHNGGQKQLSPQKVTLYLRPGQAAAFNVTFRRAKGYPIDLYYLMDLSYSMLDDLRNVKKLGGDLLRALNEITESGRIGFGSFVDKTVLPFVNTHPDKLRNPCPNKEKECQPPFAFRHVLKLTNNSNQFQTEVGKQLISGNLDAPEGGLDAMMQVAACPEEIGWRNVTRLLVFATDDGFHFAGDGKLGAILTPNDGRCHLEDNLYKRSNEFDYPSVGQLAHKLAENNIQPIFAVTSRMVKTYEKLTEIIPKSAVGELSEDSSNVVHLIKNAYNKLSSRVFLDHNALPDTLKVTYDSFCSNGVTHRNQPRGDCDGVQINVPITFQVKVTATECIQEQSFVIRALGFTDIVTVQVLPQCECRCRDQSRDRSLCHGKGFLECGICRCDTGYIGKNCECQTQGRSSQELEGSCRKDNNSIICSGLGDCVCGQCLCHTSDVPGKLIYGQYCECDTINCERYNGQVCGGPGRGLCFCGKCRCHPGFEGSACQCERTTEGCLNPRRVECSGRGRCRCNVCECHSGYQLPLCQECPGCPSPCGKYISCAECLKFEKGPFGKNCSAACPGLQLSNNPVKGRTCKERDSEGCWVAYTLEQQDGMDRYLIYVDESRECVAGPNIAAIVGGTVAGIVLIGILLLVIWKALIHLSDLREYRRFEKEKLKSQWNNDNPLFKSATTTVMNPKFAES
IC50 (sLFA-1/ICAM-1) [nM],IC50 (Mac-1/ICAM-1) [nM],SMILES
223,294,"Cc1nc(NCCCc2cccc3[nH]ncc23)sc1C(=O)N[C@@H](CNC(=O)c1cccs1)C(=O)O [Example 17, (S)-2-([2-[3-(1H-Indazol-4-yl)-propylamino]-4-methyl-thiazole-5-carbonyl]-amino)-3-[(thiophene-2-carbonyl)-amino]-propionic acid]"
19,94,"Cc1cc(C(=O)NCc2cccc(O)c2)sc1C(=O)N[C@@H](CNC(=O)c1cccs1)C(=O)O [Example 32, (S)-2-{[5-(3-hydroxy-benzylcarbamoyl)-3-methyl-thiophen-2-carbonyl]-amino}-3-[(thiophene-2-carbonyl)-amino]-propionic acid]"
149,300,CC(C)(C)c1cc(C(=O)NCc2cccc(O)c2)sc1C(=O)N[C@@H](CNC(=O)c1cccs1)C(=O)O [Example 33]
516,> 3000,"Cc1cc(C(=O)NCc2cccc3[nH]ccc23)sc1C(=O)N[C@@H](CNC(=O)c1cccs1)C(=O)O [Example 34, (S)-2-({5-[(1H-indol-4-ylmethyl)carbamoyl]-3-methyl-thiophen-2-carbonyl}-amino)-3-[(thiophene-2-carbonyl)-amino]-propionic acid]"
671,> 3000,"Cc1cc(C(=O)NCc2cccc3c2CC(=O)N3)sc1C(=O)N[C@@H](CNC(=O)c1cccs1)C(=O)O [Example 35, (S)-2-({3-methyl-5-[(2-oxo-2,3-dihydro-11′-indol-4-ylmethyl)carbamoyl]-thiophen-2-carbonyl}-amino)-3-[(thiophene-2-carbonyl)-amino]-propionic acid]"
24,48,"Cc1cc(C(=O)NCc2cccc3[nH]ncc23)sc1C(=O)N[C@@H](CNC(=O)c1cccs1)C(=O)O [Example 36, (S)-2-({5-[(1H-indazol-4-ylmethyl)-carbamoyl]-3-methyl-thiophen-2-carbonyl}-amino)-3-[(thiophene-2-carbonyl)-amino]-propionic acid]"
2,7,"Cc1cc(C(=O)NCc2cccc(O)c2)sc1C(=O)N[C@@H](CNC(=O)c1cc(O)cc(O)c1)C(=O)O [Example 38, (S)-3-(3,5-dihydroxy-benzoylamino)-2-{[5-(3-hydroxy-benzylcarbamoyl)-3-methyl-thiophen-2-carbonyl]-amino}-propionic acid]"
55,> 3000,Cc1cc(C(=O)NCc2cccc(O)c2)sc1C(=O)N[C@@H](CNC(=O)c1cc(=O)[nH]c(=O)[nH]1)C(=O)O [Example 39]
2,23,Cc1cc(C(=O)NCc2cccc(O)c2)sc1C(=O)N[C@@H](CNC(=O)c1cccc(O)c1)C(=O)O [Example 40]
21,> 3000,Cc1cc(C(=O)NCc2cccc(O)c2)sc1C(=O)N[C@@H](CNC(=O)c1cnccn1)C(=O)O [Example 41]
35,> 3000,Cc1cc(C(=O)NCc2cccc(O)c2)sc1C(=O)N[C@@H](CNC(=O)c1ccc2[nH]cnc2c1)C(=O)O [Example 42]
18,207,"Cc1cc(C(=O)NCCc2cccc(O)c2)sc1C(=O)N[C@@H](CNC(=O)c1cc(O)cc(O)c1)C(=O)O [Example 49, (S)-3-(3,5-dihydroxy-benzoylamino)-2-([5-[2-(3-hydroxy-phenyl)-ethyl-carbamoyl]-3-methyl-thiophen-2-carbonyl]-amino)-propionic acid]"
344,> 3000,"O=C(NC[C@H](NC(=O)c1sc(C(=O)NCc2cccc3[nH]ccc23)cc1C(F)(F)F)C(=O)O)c1cccs1 [Example 50, (S)-2-({5-[(1H-Indol-4-ylmethyl)-carbamoyl]-3-trifluoromethyl-thiophene-2-carbonyl}-amino)-3-[(thiophene-2-carbonyl)-amino]-propionic acid]"
164,> 3000,"O=C1Cc2c(CNC(=O)c3cc(C(F)(F)F)c(C(=O)N[C@@H](CNC(=O)c4cccs4)C(=O)O)s3)cccc2N1 [Example 51, (S)-2-({5-[(2-oxo-2,3-dihydro-1H-indol-4-ylmethyl)-carbamoyl]-3-trifluoromethyl-thiophene-2-carbonyl}-amino)-3-[(thiophene-2-carbonyl)-amino]-propionic acid]"
31,115,"O=C(NC[C@H](NC(=O)c1sc(C(=O)NCc2cccc(O)c2)cc1C(F)(F)F)C(=O)O)c1cccs1 [Example 52, (S)-2-{[5-(3-Hydroxy-benzylcarbamoyl)-3-trifluoromethyl-thiophene-2-carbonyl]-amino}-3-[(thiophene-2-carbonyl)-amino]-propionic acid]"
7,62,"O=C(NC[C@H](NC(=O)c1sc(C(=O)NCc2cccc(O)c2)cc1Cl)C(=O)O)c1cccs1 [Example 54, (S)-2-{[3-Chloro-5-(3-hydroxy-benzylcarbamoyl)-thiophene-2-carbonyl]-amino}-3-[(thiophene-2-carbonyl)-amino]-propionic acid]"
29,20,"O=C(NC[C@H](NC(=O)c1sc(C(=O)NCc2cccc3[nH]ncc23)cc1Cl)C(=O)O)c1cccs1 [Example 56, (S)-2-({3-Chloro-5-[(1H-indazol-4-ylmethyl)-carbamoyl]-thiophene-2-carbonyl}-amino)-3-[(thiophene-2-carbonyl)-amino]-propionic acid]"
41,55,"O=C(NC[C@H](NC(=O)c1sc(C(=O)NCc2cccc3[nH]ncc23)cc1C(F)(F)F)C(=O)O)c1cccs1 [Example 58, (S)-2-({5-[(1H-Indazol-4-ylmethyl)-carbamoyl]-3-trifluoromethyl-thiophene-2-carbonyl}-amino)-3-[(thiophene-2-carbonyl)-amino]-propionic acid]"
29,46,"CC(C)c1cc(C(=O)NCc2cccc(O)c2)sc1C(=O)N[C@@H](CNC(=O)c1cccs1)C(=O)O [Example 59, (S)-2-{[5-(3-Hydroxy-benzylcarbamoyl)-3-isopropyl-thiophene-2-carbonyl]-amino}-3-[(thiophene-2-carbonyl)-amino]-propionic acid]"
49,17,"CC(C)c1cc(C(=O)NCc2cccc3[nH]ncc23)sc1C(=O)N[C@@H](CNC(=O)c1cccs1)C(=O)O [Example 60, (S)-2-([5-[(1H-Indazol-4-ylmethyl)-carbamoyl]-3-isopropyl-thiophene-2-carbonyl]-amino)-3-[(thiophene-2-carbonyl)-amino]-propionic acid]"
16,31,"CCc1cc(C(=O)NCc2cccc(O)c2)sc1C(=O)N[C@@H](CNC(=O)c1cccs1)C(=O)O [Example 61, (S)-2-{[3-Ethyl-5-(3-hydroxy-benzylcarbamoyl)-thiophene-2-carbonyl]-amino}-3-[(thiophene-2-carbonyl)-amino]-propionic acid]"
21,25,"CCc1cc(C(=O)NCc2cccc3[nH]ncc23)sc1C(=O)N[C@@H](CNC(=O)c1cccs1)C(=O)O [Example 62, (S)-2-({3-Ethyl-5-[(1H-indazol-4-ylmethyl)-carbamoyl]-thiophene-2-carbonyl}-amino)-3-[(thiophene-2-carbonyl)-amino]-propionic acid]"
7,25,"O=C(NC[C@H](NC(=O)c1sc(C(=O)NCc2cccc(O)c2)cc1Br)C(=O)O)c1cccs1 [Example 63, (S)-2-{[3-Bromo-5-(3-hydroxy-benzylcarbamoyl)-thiophene-2-carbonyl]-amino}-3-[(thiophene-2-carbonyl)-amino]-propionic acid]"
11,> 3000,"Cc1cc(C(=O)NCc2ccc(F)c(O)c2)sc1C(=O)N[C@@H](CNC(=O)c1cccs1)C(=O)O [Example 64, (S)-2-{[5-(4-Fluoro-3-hydroxy-benzylcarbamoyl)-3-methyl-thiophene-2-carbonyl]-amino}-3-[(thiophene-2-carbonyl)-amino]-propionic acid]"
